Where two headings read alike, the source gives them in different places.
Columns and labels:
[1] = Phase 1 food effect study Part 2 (Cohort 5), single 500 mg dose fed vs fasted; assay type: in vivo, human; conditions: LYT-100 @500 mg single dose
Protocol: The comparison will be based on Day 1, Day 2 and Day 3 PK plasma samples after the first dose of study drug on Day 1 under fast and fed conditions of Part 2.
Subjects will be admitted to the CRU on Day-1 and will fast overnight for at least 10 h.

[2] = 200 mg SD-559 (pirfenidone) BID, Huang et al.; in ng/mL; cited from earlier work
[3] = humans, cited from earlier work
[4] = 91-day repeat dose oral toxicity and toxicokinetics study in rats; conditions: for Ratio of exposure (AUC), Group 4 (LYT-100 at 750 mg/kg) analyte / Group 5 (SD-559 at 750 mg/kg) analyte: LYT-100/SD-559, SD-790/SD-788, SD-1051/SD-1050, SD-789 Group 4/SD-789 Group 5
[5] = Phase 1 multiple ascending dose (MAD) study Part 1, healthy volunteers (PK and safety); conditions: for Average ratio to the parent (M/P) by AUC: range in brackets
Protocol: Up to 5 dosing cohorts are planned in Part 1.
Additional cohorts and intermediate doses may be selected in lieu of predefined doses as noted and in accordance with safety and tolerability responses, but doses will not exceed 1000 mg BID or a total daily dose of 2000 mg.
A standardised lunch will be served ≥4 h post breakfast and ≥4 h prior to dinner. An evening snack will be served ≥3 h following evening study medication administration. No additional fluids will be allowed during the 1 h pre- and post-doses. On Day 6, subjects will replicate mealtimes as scheduled on Day 1-5.
Plasma PK parameters (non-compartmental or compartmental analysis as appropriate) will include, but are not limited to: • Following single dose: Tmax, tlag, Cmax, AUC0-4, AUC0-last, t1/2, AUC0-inf, lambda z, %AUCext, CL/F, Vz/F, Cmax/D, AUC0-last/D, AUC0-inf/D and MRT (D is dose) • After repeated doses: Ctrough, Ctrough/D • Following repeated doses on last day: Tmax, Cmax, Cavg, tlag, t1/2, AUC0-4, AUC0-last; AUC0-inf, lambda z, %AUCext, CLss/F, Vzss/F, MRT, PTF, Rac(AUC), Rac(Cmax), Cmax/D, AUClast/D, AUC0-inf/D and Rae (accumulation ratio).

[6] = Single 801 mg dose, double-blinded, cross-over study of LYT-100 vs pirfenidone in healthy volunteers (PK and safety); conditions: for Cmax (ng/mL), Mean / AUC0-t (hr*ng/mL), Mean / tmax (hr), Median / % AUC extrap, Mean / AUC(inf) (hr*ng/mL), Mean / Kel (1/hr), Mean / t1/2 (hr), Mean: fed; for Cmax (ng/mL), Mean: healthy volunteers; for Cmax (ng/mL), Mean / AUC0-t (hr*ng/mL), Mean / tmax (hr), Median: n = 24
Source text: Following screening, eligible healthy volunteer subjects were admitted to a single clinical study site and were randomized to 1 of 2 treatment sequences. […] In each period, a standardized breakfast was provided to subjects prior to administration of study drug (to compare the PK profiles in the clinically relevant fed state) and plasma samples were collected over a 48-hour period after dosing for evaluation of PK. Dosing between the 2 periods was separated by a minimum of 7 days. Subjects completed the study upon completion of the 48-hour post-dose assessments following dosing period 2.
All capsules were identical in size, shape, and external color.

[7] = rats dosed with SD-560, Groups 2 to 4, general statement
[8] = Treatment = LYT-100, single 801 mg oral dose
[9] = Treatment = LYT-100, single 801 mg oral dose, n = 24 (LYT-110 n = 23)
[10] = Treatment = Pirfenidone, single 801 mg oral dose
[11] = Treatment = Pirfenidone, single 801 mg oral dose, n = 24 (LYT-111 n = 19)
[12] = after LYT-100 801 mg, metabolite/LYT-100
[13] = after LYT-100 801 mg, metabolite/LYT-100, molecular weight corrected
[14] = after Pirfenidone (LYT-101) 801 mg, metabolite/LYT-101
[15] = after Pirfenidone (LYT-101) 801 mg, metabolite/LYT-101, molecular weight corrected

O=C(O)c1ccc(=O)n(-c2ccccc2)c1 [LYT-105, 5-carboxy-pirfenidone]
AUC, % Change Fed vs Fasted [1]: −5%
Cmax, % Change Fed vs Fasted [1]: −1.7%
Tmax, % Change Fed vs Fasted [1]: +33%
observed Cmax [2]: 1476
Plasma exposure as percent of the exposure to pirfenidone ([3]; Huang 2013): approximately 50%
Share of recovered drug material excreted as this metabolite ([3]; urine, after oral pirfenidone): > 95%
Ratio of exposure (AUC), Group 4 (LYT-100 at 750 mg/kg) analyte / Group 5 (SD-559 at 750 mg/kg) analyte ([4]; Day 1, Female rats): 0.49
Ratio of exposure (AUC), Group 4 (LYT-100 at 750 mg/kg) analyte / Group 5 (SD-559 at 750 mg/kg) analyte ([4]; Day 1, Male rats): 0.45
Ratio of exposure (AUC), Group 4 (LYT-100 at 750 mg/kg) analyte / Group 5 (SD-559 at 750 mg/kg) analyte ([4]; Day 28, Female rats): 0.71
Ratio of exposure (AUC), Group 4 (LYT-100 at 750 mg/kg) analyte / Group 5 (SD-559 at 750 mg/kg) analyte ([4]; Day 28, Male rats): 0.57
Cmax in rat relative to human ([4]; male rat Day 1 vs human): ~9 fold
Exposure in rats relative to humans after 28 days of daily dosing ([4]; male rat Day 28 vs human): ~7 fold
Exposure (AUC) in rat relative to human ([4]; male rats 750 mg/kg Day 1 vs human single 801 mg dose): about 8 fold
Dose proportionality of AUC0-24 over 250 to 750 mg/kg [4, 7]: dose proportional
Dose proportionality of Cmax over 250 to 750 mg/kg [4, 7]: approximately dose proportional
Lower Cmax and exposure of SD-789 after SD-560 than of SD-789 after SD-559 ([4]; rats, 750 mg/kg each): approximately 50%
Accumulation ratios (AUC96-108/AUC0-12) across all dose groups ([5]; 100 mg, 250 mg, 500 mg, and 750 mg BID, Cohorts 1-4, FIG. 19): ~1
Dose dependence of AUC96-108 across all dose Cohorts ([5]; 100 to 1000 mg BID, FIG. 25): linear dose proportionality
Average ratio to the parent (M/P) by AUC ([5]; Cohort 4, 750 mg BID): 0.45 (0.37-0.50)
Average ratio to the parent (M/P) by AUC ([5]; Cohort 6, 1000 mg BID): 0.56 (0.44-0.66)
observed Cmax ([5]; LYT-100 100 mg BID with food): 567 ng/mL
% difference (vs. 200 mg SD-559) Cmax ([5]; LYT-100 100 mg vs Huang et al. data extrapolated assuming dose proportionality, LYT-100 vs SD-559, SD-789 vs SD-789): −23%
observed Cmax ([5]; LYT-100 250 mg BID with food): 1170 ng/mL
% difference (vs. 200 mg SD-559) Cmax ([5]; LYT-100 250 mg vs Huang et al. data extrapolated assuming dose proportionality): −37%
observed Cmax ([5]; LYT-100 500 mg BID with food): 2360 ng/mL
% difference (vs. 200 mg SD-559) Cmax ([5]; LYT-100 500 mg vs Huang et al. data extrapolated assuming dose proportionality): −36%
observed Cmax ([5]; LYT-100 750 mg BID with food): 3370 ng/mL
% difference (vs. 200 mg SD-559) Cmax ([5]; LYT-100 750 mg vs Huang et al. data extrapolated assuming dose proportionality): −39%
observed Cmax ([5]; LYT-100 1000 mg BID with food): 4940 ng/mL
% difference (vs. 200 mg SD-559) Cmax ([5]; LYT-100 1000 mg vs Huang et al. data extrapolated assuming dose proportionality): −33%
Average ratio of metabolite to the parent (mtp) by AUC ([5]; MAD study, all doses): 0.45
Cmax (ng/mL), Mean [6, 8]: 3970 ng/mL
AUC0-t (hr*ng/mL), Mean [6, 8]: 23090 ng·h/mL
tmax (hr), Median [6, 8]: 2.50 h
% AUC extrap, Mean [6, 9]: 1.13%
AUC(inf) (hr*ng/mL), Mean [6, 9]: 23350 ng·h/mL
Kel (1/hr), Mean [6, 9]: 0.262 h⁻¹
t1/2 (hr), Mean [6, 9]: 2.91 h
Cmax (ng/mL), Mean [6, 10]: 5241 ng/mL
AUC0-t (hr*ng/mL), Mean [6, 10]: 26932 ng·h/mL
tmax (hr), Median [6, 10]: 3.00 h
% AUC extrap, Mean [6, 11]: 0.843%
AUC(inf) (hr*ng/mL), Mean [6, 11]: 27159 ng·h/mL
Kel (1/hr), Mean [6, 11]: 0.288 h⁻¹
t1/2 (hr), Mean [6, 11]: 2.55 h
Metabolite/Parent Ratio, AUC0-∞, Median [6, 12]: 32.3%
Metabolite/Parent Ratio, Cmax, Median [6, 12]: 33.5%
Metabolite/Parent Ratio, AUC0-∞, Mean [6, 13]: 43.8%
Metabolite/Parent Ratio, Cmax, Mean [6, 13]: 43.3%
Metabolite/Parent Ratio, AUC0-∞, Mean ([6]; after LYT-100 801 mg, metabolite/LYT-100, molecular weight corrected, listed as 5-carboxy-pirfenidone): 43.8%
Metabolite/Parent Ratio, AUC0-∞, Median [6, 14]: 53.7%
Metabolite/Parent Ratio, Cmax, Median [6, 14]: 57.5%
Metabolite/Parent Ratio, AUC0-∞, Mean [6, 15]: 65.9%
Metabolite/Parent Ratio, Cmax, Mean [6, 15]: 68.1%
Metabolite/Parent Ratio, AUC0-∞, Mean ([6]; after Pirfenidone (LYT-101) 801 mg, metabolite/LYT-101, molecular weight corrected, listed as 5-carboxy-pirfenidone): 65.9%
Reduction of AUC after LYT-100 relative to pirfenidone ([6]; single 801 mg dose each): approximately 15%
Reduction of Cmax after LYT-100 relative to pirfenidone ([6]; single 801 mg dose each): ~25%

O=c1ccc(CO)cn1-c1ccccc1 [SD-788, 5-hydroxymethyl-pirfenidone]
Formation greater in terms of overall systemic exposure (AUC) after administration of LYT-100 ([6]; LYT-100 vs pirfenidone, single 801 mg dose): approximately 50%
Cmax (ng/mL), Mean [6, 10]: 17.1 ng/mL
AUC0-t (hr*ng/mL), Mean [6, 10]: 75.8 ng·h/mL
tmax (hr), Median [6, 10]: 2.50 h
% AUC extrap, Mean [6, 11]: 10.3%
AUC(inf) (hr*ng/mL), Mean [6, 11]: 89.7 ng·h/mL
Kel (1/hr), Mean [6, 11]: 0.367 h⁻¹
t1/2 (hr), Mean [6, 11]: 2.04 h
Metabolite/Parent Ratio, AUC0-∞, Median [6, 14]: 0.2%
Metabolite/Parent Ratio, Cmax, Median [6, 14]: 0.2%
Metabolite/Parent Ratio, AUC0-∞, Mean [6, 15]: 0.2%
Metabolite/Parent Ratio, Cmax, Mean [6, 15]: 0.2%

— patent publication US20230129866A1 (PureTech LYT 100, Inc., priority 2020, published 2023)
